We go through 2 molecules from patent US20040210959A1, “A Novel Method for Production of Transformed Dihaploid Corn Plants” (MONSANTO TECHNOLOGY LLC, priority 2003, published 2004).

Experiment [1] relates to corn line D haploid callus. The experiment in a line: Chromosome doubling of haploid callus with colchicine; ploidy of regenerated plants by flow cytometry. It is filed as cell-based. The following applies: 3 days; for Diploid plants / Haploid plants / Tetraploid plants: 0.025% colchicine. From the text: When a sufficient amount of transgenic callus has grown (approximately 0.25 g), the haploid callus can be doubled to produce dihaploid callus. The callus can be transferred to a 100×20 mm petri plate that contains a structure for supporting callus in a liquid medium such as three filter papers or 2 pieces of 100% acrylic felt. Those of skill in the art are aware of the numerous modifications to liquid media for supporting cultured tissues. To the Petri dish can be added a suitable culture medium lacking selection agents but containing 0.025% colchicine or other chromosome doubling agents such as Oryzalin, pronamide, or APM (amiprophos-methyl) as known to one of skill in the art (i.e., Wan et al., Theor. Appl. Genet., 81: 205-211, 1991). Enough medium and chromosome doubling agent is added to the Petri dish to keep the callus support moist, but not so much that it covers the callus. The callus is then incubated at 28° C. for 3 days in the dark.
After the co-cultivation, the callus pieces were transferred onto two pieces of 2cm^2×1 mm thick 100% acrylic felt with approximately 25 mL liquid MSW57 (Table 3) supplemented with 750 mg/L carbenicillin and 100 mg/L paromomycin in petri dishes (100 mm×25 mm) with 16 calli per plate. The plates were kept in a dark culture room at 28° C. for approximately 7-10 days after which the old medium was removed by aspiration and fresh selection medium was added to the plates. After two 10-day selection periods, the old medium was removed by aspiration and replaced with fresh MSW57 medium containing 0.025% colchicine. The tissues remained on the colchicine medium for 3 days after which the colchicine medium was removed by aspiration and replaced with fresh selection medium containing 750 mg/L carbenicillin and 100 mg/L paromomycin.
After an additional two 10-day selection periods on selection medium, the cultures were moved to a culture room with 16-h light/8-h dark photoperiod at 28° C. and the liquid medium was replaced with liquid MS-6BA medium (Table 3) with 100 mg/L paromomycin and 500 mg/L carbenicillin. After 7 days, the callus pieces were transferred onto the second regeneration medium, a hormone-free MS-based medium (MSOD, Table 3) with 100 mg/L paromomycin in petri dishes (100 mm×25 mm). In another 2 weeks, the callus pieces that had shoots regenerated or were still alive were transferred onto the same hormone-free medium in Phytatrays for further growth. Regenerated plants (R0) when they reached to the top of Phytatrays and had one or more healthy roots were moved to soil in peat pots in a growth chamber. In 7 to 10 days, they were transplanted into 12-in pots after determining by flow cytometry that they were doubled haploids. Using this procedure, 23 transgenic events were produced from a total of 528 pieces of callus exposed to Agrobacterium and selection on paromomycin (Table 6).
For orientation: In flow cytometry, cells or beads pass a laser one at a time.

The test system of experiment [2] is immature embryos and callus from inbred X KHI/pehA crosses. The experiment in a line: Negative selection of pehA-containing immature embryos/callus on callus induction medium with glyceryl glyphosate. It is filed as cell-based, corn. The following applies: 10 to 14 days on callus induction medium; glyceryl glyphosate 0 to 5 mM. From the text:
An efficient identification of corn haploid immature embryos, and callus derived from them, can be achieved by using the negative selectable marker gene pehA (phosphonate monoesterase). Cells that express the pehA gene convert the non-toxic glycerol glyphosate to toxic glyphosate and subsequently die. It is understood, however, that other negative selectable marker genes such as cytosine deaminase (which converts 5-fluorocytosine to 5-fluorouracil, which is toxic to cell growth [Plant Cell Reports 2001; 20:738-743]) may also be used equally effectively.
Inbred lines selected for the production of haploid immature embryos or callus can be pollinated with KHI that has been transformed with, and is homozygous for, the selectable marker gene pehA. After culturing on media containing glyceryl glyphosate, diploid (pehA containing) explants fail to grow, whereas maternal haploid explants produce callus typical of the maternal inbred.
Inbred lines selected for the production of haploid immature embryos or callus were pollinated with KHI that had been transformed with, and was homozygous for, the selectable marker gene pehA. The resulting ears were harvested when their embryos were 1.25 to 2.25 mm in size. Immature embryos were plated on suitable culture media to induce the desired type of callus. […]

Take `COc1cc2c(c(OC)c1OC)-c1ccc(OC)c(=O)cc1[C@@H](NC(C)=O)CC2` [colchicine]: the “doubling chromosomes of haploid callus” value in experiment [1] (corn line D haploid callus, MSW57 medium with 0.025% colchicine) is given as “effective in doubling chromosomes”. Besides, the Diploid plants in experiment [1] (haploid callus line S33-B2) was determined as 67%; in experiment [1] (haploid callus line S41-A1) it was 50%; in experiment [1] (haploid callus line S42-B4), 33%; in experiment [1] (haploid callus line S43-B1), 50%; in experiment [1] (haploid callus line S49-B1) it was 100%. Moreover, the Haploid plants in experiment [1] (haploid callus line S33-B2) stood at 33%; in experiment [1] (haploid callus line S41-A1) it was 50%; in experiment [1] (haploid callus line S42-B4) it was 33%; in experiment [1] (haploid callus line S43-B1), 17%; in experiment [1] (haploid callus line S55-B1), 33%. The Tetraploid plants in experiment [1] (haploid callus line S42-B4) was determined as 33%; in experiment [1] (haploid callus line S43-B1) it was 33%; in experiment [1] (haploid callus line S55-B1), 67%.
In the case of `O=C(O)CNCP(=O)(O)OCC(O)CO` (stereo not shown) [glyceryl glyphosate], in experiment [2], the “growth of diploid (pehA containing) immature embryos” value was “failed to grow” and the “growth of maternal haploid immature embryos” value is given as “produced callus typical of maternal inbred”.
